Results taken from US10035799B2, “COMT inhibiting methods and compositions” (Lieber Institute for Brain Development, priority 2015, dated 2018).

Biological target: T1, catechol-O-methyltransferase (COMT) (Homo sapiens, UniProt P21964)
T1 construct: M51A variant) was expressed in HEK 293F cells
T1 sequence (P21964 52-271 limits assumed): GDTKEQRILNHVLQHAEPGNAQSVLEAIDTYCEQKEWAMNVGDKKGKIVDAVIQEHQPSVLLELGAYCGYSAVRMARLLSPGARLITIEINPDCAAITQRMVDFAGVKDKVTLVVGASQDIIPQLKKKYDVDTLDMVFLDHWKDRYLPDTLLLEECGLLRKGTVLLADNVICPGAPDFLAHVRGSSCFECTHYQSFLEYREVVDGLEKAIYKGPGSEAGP
Assay: COMT inhibition assay (HTRF, production of S-adenosyl homocysteine)
Type: biochemical
Conditions: recombinant human COMT, HTRF SAH production; MB-COMT or S-COMT not stated for Table 1
Method: The ability of compounds to inhibit the activity of catechol-O-methyltransferase (COMT) was determined by a homogenous time-resolved fluorescent (HTRF) assay (Lina et al, 2012; kit from CisBio, Codolet, France). This assay measures the production of S-adenosyl homocysteine (SAH) from the methyl donor S-adenosyl methionine. Recombinant human membrane bound COMT (MB-COMT; M51A variant) was expressed in HEK 293F cells using 293Fectin (Life Technologies, Gent, Belgium) and membranes prepared. The membranes were re-suspended in buffer (20 mM Tris/HCl pH 7; 10 mM glycerol; 2 mM MgCl2; 10 mM NaCl), aliquoted and stored at −80° C. Recombinant human soluble COMT(S-COMT), Va1158 variant and a hexa-His tag on the N-terminus, was purified using Ni-NTA chromatography, the His tag removed and stored in buffer as above.
For the human MB-COMT assay, membranes (62 ng/well) were incubated with SAM (20 μM final, CisBio) and dopamine (1.5 μM final; Sigma H8502, Diegem, Belgium) in the presence or absence of varying concentrations (typically 10 concentrations ranging from 10 μM to 0.1 nM) of compound for 40 min at 37° C. in 384-well microtitre plates (10 μl per well final volume). The reaction was terminated by the addition of acylation buffer and the amount of SAH produced determined according to manufacturer's instructions. Specific inhibition as that inhibited by a high concentration of tolcapone (10 μM; synthesised at UCB) and all experiments were validated using a control curve to tolcapone.
The human S-COMT assay was performed as above except that 0.15 ng enzyme/well was incubated with SAM (20 μM final) and dopamine (100 μM final) for 15 min at 37° C. and SAH production determined.
HTRF readings were performed using a Perkin Elmer Envision and results expressed as concentration of SAH produced using a standard curve. Results were analysed using non-linear regression to the 4-parameter logistic equation and pIC50 (−log 10 concentration of drug which inhibits enzyme activity/SAH production by 50%) determined.

Row | SMILES | Activity range (pIC50, COMT inhibition)
1 | Cc1cc(S(=O)(=O)N(C)[C@H](C)c2ccccc2)c2cccnc2c1O [Example 115, 8-hydroxy-N,7-dimethyl-N-[(1R)-1-phenylethyl]quinoline-5-sulfonamide] | ++ (a pIC50 of from about great than 6 to 7)
2 | O=S(=O)(c1cc(F)c(O)c2ncccc12)N1CCN(Cc2ccc(F)cc2)CC1 [Example 122, 7-fluoro-5-[4-[(4-fluorophenyl)methyl]piperazin-1-yl]sulfonyl-quinolin-8-ol] | ++ (a pIC50 of from about great than 6 to 7)
3 | O=S(=O)(c1ccc(Cl)cc1)c1ccc(O)c2ncccc12 [Example 9, 5-(4-chlorophenyl)sulfonylquinolin-8-ol] | +++ (a pIC50 of above about 7)
4 | CC1CN(C(=O)OC(C)(C)C)CCN1S(=O)(=O)c1ccc(O)c2ncccc12 (stereo not drawn) [Example 105, tert-butyl 4-[(8-hydroxy-5-quinolyl)sulfonyl]-3-methyl-piperazine-1-carboxylate] | ++ (a pIC50 of from about great than 6 to 7)
5 | Cc1ccc(CS(=O)(=O)c2ccc(O)c3ncccc23)cc1 [Example 32, 5-(p-tolylmethylsulfonyl)quinolin-8-ol] | ++ (a pIC50 of from about great than 6 to 7)
6 | O=S(=O)(c1ccc(O)c2ncccc12)N1CCC(c2ccc(F)cc2)C1 (stereo not drawn) [Example 62, 5-(3-(4-fluorophenyl)pyrrolidin-1-yl)sulfonylquinolin-8-ol] | +++ (a pIC50 of above about 7)
7 | O=S(=O)(c1ccc(O)c2ncccc12)N1CCCC1c1ccncc1 (stereo not drawn) [Example 79, 5-[2-(4-pyridyl)pyrrolidin-1-yl]sulfonylquinolin-8-ol] | ++ (a pIC50 of from about great than 6 to 7)
8 | Cc1ccc(C)c(N2CCN(S(=O)(=O)c3ccc(O)c4ncccc34)CC2)c1 [Example 93, 5-[4-(2,5-dimethylphenyl)piperazin-1-yl]sulfonylquinolin-8-ol] | ++ (a pIC50 of from about great than 6 to 7)
9 | O=S(=O)(c1ccc(O)c2ncccc12)N1C[C@@H](F)[C@H](F)C1 [Example 70, 5-[(3R,4R)-3,4-difluoropyrrolidin-1-yl]sulfonylquinolin-8-ol] | +++ (a pIC50 of above about 7)
10 | Cc1ccccc1C1CCCN1S(=O)(=O)c1ccc(O)c2ncccc12 (stereo not drawn) [Example 71, 5-[2-(o-tolyl)pyrrolidin-1-yl]sulfonylquinolin-8-ol] | +++ (a pIC50 of above about 7)
11 | CN(CCc1ccccc1)S(=O)(=O)c1ccc(O)c2ncccc12 [Example 48, 8-hydroxy-N-methyl-N-phenethyl-quinoline-5-sulfonamide] | +++ (a pIC50 of above about 7)
12 | O=S(=O)(c1ccc(O)c2ncccc12)N1CCN(Cc2ccccc2)CC1 [Example 43, 5-(4-benzylpiperazin-1-yl)sulfonylquinolin-8-ol] | +++ (a pIC50 of above about 7)
13 | CCN(Cc1ccncc1)S(=O)(=O)c1ccc(O)c2ncccc12 [Example 66, N-ethyl-8-hydroxy-N-(4-pyridylmethyl)quinoline-5-sulfonamide] | ++ (a pIC50 of from about great than 6 to 7)
14 | O=S(=O)(c1ccccc1)c1ccc(O)c2ncccc12 [Example 22, 5-(benzenesulfonyl)quinolin-8-ol] | +++ (a pIC50 of above about 7)
15 | O=S(=O)(c1ccc(O)c2ncccc12)N1CC2CCC(CC2)C1 [Example 91, 5-(3-azabicyclo[3.2.2]nonan-3-ylsulfonyl)quinolin-8-ol] | +++ (a pIC50 of above about 7)
16 | O=S(=O)(c1ccc(O)c2ncccc12)C1CCN(Cc2cccc(Cl)c2Cl)CC1 [Example 38, 5-[[1-[(2,3-dichlorophenyl)methyl]-4-piperidyl]sulfonyl]quinolin-8-ol] | ++ (a pIC50 of from about great than 6 to 7)
17 | O=S(=O)(c1ccc(O)c2ncccc12)C1CCNCC1 [Example 34, 5-(4-piperidylsulfonyl)quinolin-8-ol] | ++ (a pIC50 of from about great than 6 to 7)
18 | Cc1cccc(S(=O)(=O)c2ccc(O)c3ncccc23)c1 [Example 7, 5-(m-tolylsulfonyl)quinolin-8-ol] | +++ (a pIC50 of above about 7)
19 | O=S(=O)(c1ccc(O)c2ncccc12)C1CCN(c2ccc(F)cc2)CC1 [Example 37, 5-[[1-(4-fluorophenyl)-4-piperidyl]sulfonyl]quinolin-8-ol] | ++ (a pIC50 of from about great than 6 to 7)

Results, then the compound that gave them:

Row | Activity range (pIC50, COMT inhibition) | SMILES
20 | +++ (a pIC50 of above about 7) | O=S(=O)(c1ccc(O)c2ncccc12)N1CCC(O)(c2ccccc2)CC1 [Example 83, 5-[(4-hydroxy-4-phenyl-1-piperidyl)sulfonyl]quinolin-8-ol]
21 | +++ (a pIC50 of above about 7) | C[C@H](c1ccccc1)N(C)S(=O)(=O)c1cc(F)c(O)c2ncccc12 [Example 123, 7-fluoro-8-hydroxy-N-methyl-N-[(1R)-1-phenylethyl]quinoline-5-sulfonamide]
22 | +++ (a pIC50 of above about 7) | CC(=O)C1(c2ccccc2)CCN(S(=O)(=O)c2ccc(O)c3ncccc23)CC1 [Example 86, 1-[1-[(8-hydroxy-5-quinolyl)sulfonyl]-4-phenyl-4-piperidyl]ethanone]
23 | +++ (a pIC50 of above about 7) | CC(C)CC1CCCN1S(=O)(=O)c1ccc(O)c2ncccc12 (stereo not drawn) [Example 82, 5-(2-isobutylpyrrolidin-1-yl)sulfonylquinolin-8-ol]
24 | +++ (a pIC50 of above about 7) | COc1ccc(C2CCCN2S(=O)(=O)c2ccc(O)c3ncccc23)cc1 (stereo not drawn) [Example 77, 5-[2-(4-methoxyphenyl)pyrrolidin-1-yl]sulfonylquinolin-8-ol]
25 | +++ (a pIC50 of above about 7) | O=S(=O)(c1ccc(O)c2ncccc12)N1CCC(Cc2ccccc2)CC1 [Example 84, 5-[(4-benzyl-1-piperidyl)sulfonyl]quinolin-8-ol]
26 | + (a pIC50 of from about 4.5 to 6) | Cc1cc(S(=O)(=O)N2C[C@@H](F)[C@H](F)C2)c2cccnc2c1O [Example 116, 5-[(3R,4R)-3,4-difluoropyrrolidin-1-yl]sulfonyl-7-methyl-quinolin-8-ol]
27 | +++ (a pIC50 of above about 7) | O=S(=O)(c1ccc(O)c2ncccc12)N1CCCC1C1CCCCC1 (stereo not drawn) [Example 76, 5-(2-cyclohexylpyrrolidin-1-yl)sulfonylquinolin-8-ol]
28 | +++ (a pIC50 of above about 7) | O=S(=O)(c1ccc(O)c2ncccc12)N1CCCC(c2ccccc2)C1 (stereo not drawn) [Example 102, 5-[(3-phenyl-1-piperidyl)sulfonyl]quinolin-8-ol]
29 | +++ (a pIC50 of above about 7) | Cc1ccc(S(=O)(=O)c2cc(F)c(O)c3ncccc23)cc1 [Example 110, 7-fluoro-5-(p-tolylsulfonyl)quinolin-8-ol]
30 | +++ (a pIC50 of above about 7) | O=C1NCN(c2ccccc2)C12CCN(S(=O)(=O)c1ccc(O)c3ncccc13)CC2 [Example 87, 8-[(8-hydroxy-5-quinolyl)sulfonyl]-1-phenyl-1,3,8-triazaspiro[4.5]decan-4-one]
